Results reported in ChEMBL document CHEMBL4304775, “Identification and characterization of a novel chemotype for human TLR8 inhibitors” (Eur J Med Chem, 2019).
Active and inactive are the calls of the source. No cut-off for these calls is given here.

Key:
[1] = target: T1, Toll-like receptor 7 (Homo sapiens) (UniProt Q9NYK1); assay: Antagonist activity at human TLR7 expressed in HEK-Blue cells assessed as inhibition of CL075-induced NF-kappaB activation incubated for 1 hr followed by CL075-stimulation and measured after 24 hrs by quanti-blue SEAP assay; format: cell-based
T1 sequence (whole entry): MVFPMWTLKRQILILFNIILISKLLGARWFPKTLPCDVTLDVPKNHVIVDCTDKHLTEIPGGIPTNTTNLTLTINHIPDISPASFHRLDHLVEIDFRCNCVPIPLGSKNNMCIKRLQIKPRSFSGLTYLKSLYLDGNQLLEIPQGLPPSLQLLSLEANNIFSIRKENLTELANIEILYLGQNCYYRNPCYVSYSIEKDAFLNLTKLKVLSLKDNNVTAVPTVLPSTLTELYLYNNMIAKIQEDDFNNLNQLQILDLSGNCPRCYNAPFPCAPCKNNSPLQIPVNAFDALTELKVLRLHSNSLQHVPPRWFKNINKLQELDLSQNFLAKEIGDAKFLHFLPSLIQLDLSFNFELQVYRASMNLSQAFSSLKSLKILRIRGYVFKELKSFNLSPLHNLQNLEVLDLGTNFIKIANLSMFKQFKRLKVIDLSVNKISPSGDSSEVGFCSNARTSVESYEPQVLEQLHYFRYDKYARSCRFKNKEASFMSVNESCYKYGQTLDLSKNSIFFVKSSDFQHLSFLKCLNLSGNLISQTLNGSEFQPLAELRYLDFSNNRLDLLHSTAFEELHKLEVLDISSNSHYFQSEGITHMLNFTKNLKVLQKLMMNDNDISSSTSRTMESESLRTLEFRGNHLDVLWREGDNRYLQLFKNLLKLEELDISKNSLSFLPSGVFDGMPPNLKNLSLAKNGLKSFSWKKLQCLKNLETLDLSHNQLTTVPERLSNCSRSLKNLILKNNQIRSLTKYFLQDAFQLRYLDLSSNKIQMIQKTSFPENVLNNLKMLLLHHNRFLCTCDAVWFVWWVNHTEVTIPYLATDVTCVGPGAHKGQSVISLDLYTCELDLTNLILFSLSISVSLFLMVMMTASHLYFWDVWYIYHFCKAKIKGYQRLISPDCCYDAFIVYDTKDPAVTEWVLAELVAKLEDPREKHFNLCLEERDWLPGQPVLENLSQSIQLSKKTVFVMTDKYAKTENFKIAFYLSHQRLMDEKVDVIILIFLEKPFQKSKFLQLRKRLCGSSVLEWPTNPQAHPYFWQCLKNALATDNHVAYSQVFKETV

[2] = target: Toll-like receptor 2 (Homo sapiens) (UniProt O60603); assay: Antagonist activity at TLR2 in human THP1 cells assessed as inhibition of Pam2CSK4/Pam3CSK4-induced IL-8 secretion preincubated for 1 hr followed by Pam2CSK4/Pam3CSK4 stimulation and measured after 24 hrs by ELISA; format: cell-based
Toll-like receptor 2 (Homo sapiens), sequence (O60603 whole entry): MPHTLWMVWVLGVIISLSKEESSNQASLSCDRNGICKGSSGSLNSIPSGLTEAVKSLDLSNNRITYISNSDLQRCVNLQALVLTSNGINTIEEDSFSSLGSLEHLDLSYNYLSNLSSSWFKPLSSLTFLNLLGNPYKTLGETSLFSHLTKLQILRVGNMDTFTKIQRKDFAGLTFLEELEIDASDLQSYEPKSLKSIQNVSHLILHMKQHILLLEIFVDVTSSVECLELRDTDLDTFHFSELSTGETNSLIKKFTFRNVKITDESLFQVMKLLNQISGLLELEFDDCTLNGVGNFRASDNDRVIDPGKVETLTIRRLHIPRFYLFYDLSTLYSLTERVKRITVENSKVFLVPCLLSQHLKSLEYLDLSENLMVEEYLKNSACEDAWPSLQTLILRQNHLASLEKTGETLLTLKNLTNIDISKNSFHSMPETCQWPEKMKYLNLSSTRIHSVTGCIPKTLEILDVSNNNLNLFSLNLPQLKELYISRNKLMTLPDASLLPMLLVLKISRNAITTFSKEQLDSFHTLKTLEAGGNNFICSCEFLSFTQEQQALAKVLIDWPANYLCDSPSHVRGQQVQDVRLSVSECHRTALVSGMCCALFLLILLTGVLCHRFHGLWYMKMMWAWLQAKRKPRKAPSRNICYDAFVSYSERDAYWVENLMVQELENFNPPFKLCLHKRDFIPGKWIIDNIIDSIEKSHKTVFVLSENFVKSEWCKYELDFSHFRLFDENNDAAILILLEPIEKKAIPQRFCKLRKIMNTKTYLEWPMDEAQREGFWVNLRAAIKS

[3] = target: T2, Toll-like receptor 8 (Homo sapiens) (UniProt Q9NR97); assay: Antagonist activity at human TLR8 expressed in HEK-Blue cells assessed as reduction in CL075-induced NF-kappaB activation at 10 uM incubated for 1 hr followed by CL075-stimulation and measured after 24 hrs by quanti-blue SEAP assay; format: cell-based
T2 sequence (whole entry): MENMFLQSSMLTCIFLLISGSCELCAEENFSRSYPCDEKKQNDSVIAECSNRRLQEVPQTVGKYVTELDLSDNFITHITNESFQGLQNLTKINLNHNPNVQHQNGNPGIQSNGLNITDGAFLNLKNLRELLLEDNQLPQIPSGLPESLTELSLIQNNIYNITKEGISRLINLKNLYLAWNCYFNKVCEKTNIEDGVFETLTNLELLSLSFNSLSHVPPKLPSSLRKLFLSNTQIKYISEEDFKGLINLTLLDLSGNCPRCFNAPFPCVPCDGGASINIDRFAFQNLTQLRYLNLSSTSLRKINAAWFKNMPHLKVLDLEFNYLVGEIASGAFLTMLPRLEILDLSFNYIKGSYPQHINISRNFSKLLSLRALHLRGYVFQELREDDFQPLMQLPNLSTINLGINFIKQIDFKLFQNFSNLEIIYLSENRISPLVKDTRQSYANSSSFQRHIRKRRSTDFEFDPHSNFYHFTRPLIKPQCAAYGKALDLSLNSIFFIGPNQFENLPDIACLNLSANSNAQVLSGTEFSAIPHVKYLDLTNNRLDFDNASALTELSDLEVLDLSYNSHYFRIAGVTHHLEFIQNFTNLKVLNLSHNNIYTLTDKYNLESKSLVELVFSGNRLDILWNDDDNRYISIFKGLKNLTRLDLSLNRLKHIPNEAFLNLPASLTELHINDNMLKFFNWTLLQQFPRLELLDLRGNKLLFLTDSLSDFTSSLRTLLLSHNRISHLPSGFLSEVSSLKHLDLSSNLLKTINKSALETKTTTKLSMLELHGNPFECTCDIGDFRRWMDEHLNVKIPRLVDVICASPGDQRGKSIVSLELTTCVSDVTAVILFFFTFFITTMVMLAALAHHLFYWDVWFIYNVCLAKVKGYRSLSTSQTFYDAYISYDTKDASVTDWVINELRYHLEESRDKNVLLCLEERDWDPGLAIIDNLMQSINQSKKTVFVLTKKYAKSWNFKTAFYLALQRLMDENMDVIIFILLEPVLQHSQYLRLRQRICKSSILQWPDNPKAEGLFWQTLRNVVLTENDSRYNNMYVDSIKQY

[4] = Cytotoxicity against human HEK-Blue cells transfected with hTLR8 at 25 to 50 uM after 24 hrs by MTT assay; format: cell-based
[5] = target: T2, Toll-like receptor 8 (Homo sapiens); assay: Antagonist activity at human TLR8 expressed in HEK-Blue cells assessed as reduction in CL075-induced NF-kappaB activation at 25 uM incubated for 1 hr followed by CL075-stimulation and measured after 24 hrs by quanti-blue SEAP assay relative to control; format: cell-based
Toll-like receptor 8 = target: T3, Toll-like receptor 8 (Homo sapiens, UniProt Q9NR97); assay: Antagonist activity at human TLR8 expressed in HEK-Blue cells assessed as inhibition of CL075-induced NF-kappaB activation incubated for 1 hr followed by CL075-stimulation and measured after 24 hrs by quanti-blue SEAP assay; format: cell-based
T3 sequence (Q9NR97 whole entry): T2 sequence (whole entry)

THP-1 [6] = assay: Antiinflammatory activity in human THP1 cells assessed as reduction in CL075-induced TNF secretion at 10 to 25 uM preincubated for 1 hr followed by CL075-stimulation and measured after 4 hrs by ELISA relative to control; format: functional
THP-1 [7] = assay: Cytotoxicity against human THP1 cells at 25 to 100 uM after 24 hrs by MTT assay; format: cell-based; details: thp-1, 24 h
[8] = target: T2, Toll-like receptor 8 (Homo sapiens); assay: Antagonist activity at human TLR8 expressed in HEK-Blue cells assessed as reduction in CL075-induced NF-kappaB activation at 10 to 25 uM incubated for 1 hr followed by CL075-stimulation and measured after 24 hrs by quanti-blue SEAP assay relative to control; format: cell-based
[9] = Cytotoxicity against human HEK-Blue cells transfected with hTLR8 assessed as reduction in cell viability at 50 uM after 24 hrs by MTT assay; format: cell-based
THP-1 [10] = assay: Cytotoxicity against human THP1 cells assessed as reduction in cell viability at 50 uM after 24 hrs by MTT assay; format: cell-based; details: thp-1, 24 h

Row | SMILES | inhibition [1] | inhibition [2] | inhibition [3] | Activity [4] | inhibition [5] [%] | IC50 (Toll-like receptor 8) [µM] | inhibition (INH) (THP-1 [6]) [%] | Activity (THP-1 [7]) | inhibition [8] [%] | Activity [9] | Activity (THP-1 [10])
1 | FC(F)(F)c1cc(-c2ccccc2)nc(NCc2cccs2)n1 | inactive | inactive | Active | Non-Toxic | < 50 | 20 | 40 | Non-Toxic | 100 |  | 
2 | FC(F)(F)c1cc(-c2ccco2)nc(NCc2cccs2)n1 | inactive | inactive | Active |  | < 50 | 9.2 | 40 |  | 50 | Toxic | Toxic
3 | CCCCNc1nc(-c2cccs2)cc(C(F)(F)F)n1 | inactive | inactive | Active | Non-Toxic | < 50 | 35.5 | >60 | Non-Toxic | 100 |  | 
